Article PMC3577712 (PLoS ONE, 2013)

Assays:
N2 NA = N2 NA (Influenza A virus, UniProt P0DOF9); assay: biochemical
[1] = tested on: influenza A/WSN/33 (H1N1); assay: microbe, parasite or virus in culture; type: cell-based; conditions: MDCK, read-out: EC50 for viral plaque formation
[2] = tested on: influenza A/Udorn/72 (H3N2); assay: microbe, parasite or virus in culture; type: cell-based; conditions: H3N2, MDCK, read-out: EC50 for viral plaque formation
A/WSN/33 (H1N1) = type: cell-based, influenza A virus
Bac-NA^WT = Bac-NA^WT (Influenza A virus, UniProt Q6DPL2); assay: biochemical
A/WSN/33 = type: cell-based, influenza A virus
NA = conditions: cited from earlier work

N2 NA, sequence (P0DOF9 whole entry, looked up): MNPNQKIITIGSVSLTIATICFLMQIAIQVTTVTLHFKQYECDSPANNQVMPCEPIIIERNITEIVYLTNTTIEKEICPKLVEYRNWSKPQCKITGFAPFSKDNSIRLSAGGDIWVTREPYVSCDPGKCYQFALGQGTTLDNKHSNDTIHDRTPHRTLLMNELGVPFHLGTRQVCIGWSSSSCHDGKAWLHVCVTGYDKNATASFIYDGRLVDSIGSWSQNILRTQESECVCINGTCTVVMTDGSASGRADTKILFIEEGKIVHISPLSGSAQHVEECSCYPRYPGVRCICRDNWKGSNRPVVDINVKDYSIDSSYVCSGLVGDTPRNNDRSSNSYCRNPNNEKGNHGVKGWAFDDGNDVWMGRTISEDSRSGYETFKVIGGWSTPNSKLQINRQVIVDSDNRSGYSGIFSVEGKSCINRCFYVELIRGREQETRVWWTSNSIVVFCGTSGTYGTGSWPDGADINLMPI
Bac-NA^WT, sequence (Q6DPL2 63-449 limits assumed): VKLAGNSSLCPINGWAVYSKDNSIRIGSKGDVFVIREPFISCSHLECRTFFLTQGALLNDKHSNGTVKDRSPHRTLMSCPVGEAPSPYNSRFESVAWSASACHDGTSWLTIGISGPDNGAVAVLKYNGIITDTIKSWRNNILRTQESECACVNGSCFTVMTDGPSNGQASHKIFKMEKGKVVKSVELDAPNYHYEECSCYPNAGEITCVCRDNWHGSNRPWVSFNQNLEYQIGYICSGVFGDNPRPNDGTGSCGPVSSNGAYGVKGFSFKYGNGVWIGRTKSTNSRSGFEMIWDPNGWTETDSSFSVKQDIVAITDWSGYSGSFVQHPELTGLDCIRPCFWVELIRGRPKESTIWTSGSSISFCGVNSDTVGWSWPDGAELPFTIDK

Molecule: Nc1c(S(=O)(=O)O)cc(Nc2cccc(S(=O)(=O)CCOS(=O)(=O)O)c2)c2c1C(=O)c1ccccc1C2=O [RB19, Remazol Brilliant Blue R]
- IC50 (N2 NA): 15.3 µM
- EC50 [1]: 2.7 µM
- EC50 [2]: 2.8 µM
- Virus yields (fluorogenic signal of NA activity) (A/WSN/33 (H1N1)): dramatically reduced virus yields
- IC50 (Bac-NA^WT): 3.4 µM
- Influenza-induced cytopathic effect (A/WSN/33): inhibits the influenza-induced cytopathic effect

Molecule: DANA
- IC50 (NA): 10 µM
